# Values joined by “and” are separate entries in the source; they are usually repeats but may differ in a detail not shown here. Equal values may be shown once.
# Tests used:
# [1] = tested on: L1210; test: Compound was tested for its inhibitory concentration to inhibit the growth of wild type L1210 cells.; assay type: functional, cell-based, Mus musculus
# [2] = target: T1, Dihydrofolate reductase (Mus musculus, UniProt P00375); test: Compound was tested for its inhibitory concentration to inhibit the enzyme Dihydro Folate Reductase ( DHFR ) from murine L1210 leukemia cells.; assay type: cell-based
# T1 sequence (P00375 whole entry): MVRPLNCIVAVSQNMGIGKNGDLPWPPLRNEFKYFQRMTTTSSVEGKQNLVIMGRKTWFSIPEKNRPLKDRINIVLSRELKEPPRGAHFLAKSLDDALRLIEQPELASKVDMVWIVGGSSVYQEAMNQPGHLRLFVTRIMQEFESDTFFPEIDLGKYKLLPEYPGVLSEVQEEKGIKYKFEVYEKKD
# [3] = tested on: L1210; test: Compound was tested for its inhibitory concentration to inhibit the growth of wild type L1210 cells and a subline ( L1210 / R81 ).; assay type: functional, cell-based; conditions: Mus musculus
# [4] = species: Homo sapiens; test: Compound was tested for its inhibitory concentration against human leukemic lymphoblasts (CEM Cells); Mean of two assays; assay type: functional; conditions: CCRF-CEM
# [5] = species: Mus musculus; test: Compound was tested against weight change in mice with L1210 leukemia cells on 10 th Day at Dose 7.5 mg / kg; conditions: at 7.5 mg/kg
# [6] = tested on: Mus musculus; test: Median Survival days of mice infected with L1210 leukemia cells at dose 10 mg/kg relative to that of 10 days for control in expt 2; assay type: functional
# [7] = tested on: Mus musculus; test: Median Survival days of mice infected with L1210 leukemia cells at dose 15 mg/kg relative to that of 10 days for control in expt 2; assay type: functional
# [8] = tested on: L1210; test: Compound was tested for its inhibitory concentration to inhibit the growth of wild type L1210 cells and a subline (L1210 / R81).; assay type: functional, cell-based; conditions: Mus musculus
# [9] = tested on: Mus musculus; test: Median Survival days of mice infected with L1210 leukemia cells at dose 7.5 mg/kg relative to that of 10 days for control in expt 2; assay type: functional
# [10] = target: T1, Dihydrofolate reductase; test: biochemical
# Description: Compound was tested for its inhibitory concentration to inhibit the enzyme Dihydro Folate Reductase (DHFR) from murine L1210 leukemia cells.
# [11] = target: T2, Dihydrofolate reductase (Mus musculus) (UniProt P00375); conditions: L1210
# T2 sequence (whole entry): T1 sequence (P00375 whole entry)
# Description: Compound was tested for inhibition of the enzyme DiHydroFolate Reductase (DHFR) from murine L1210 leukemia cells
# [12] = species: Mus musculus; test: Compound was tested against weight change in mice with L1210 leukemia cells on 10 th Day at Dose 20 mg / kg; conditions: at 20 mg/kg
# [13] = tested on: Mus musculus; test: Increase in life span of mice with L1210 leukemia cells at a dose of 10 mg/kg in exp 2; assay type: functional
# [14] = tested on: Mus musculus; test: Median Survival days of mice infected with L1210 leukemia cells at dose 20 mg/kg relative to that of 9 days for control in expt 1; assay type: functional
# [15] = species: Mus musculus; test: Compound was tested against weight change in mice with L1210 leukemia cells on 7 th Day at Dose 10 mg / kg; assay type: functional; conditions: at 10 mg/kg
# [16] = tested on: Mus musculus; test: Increase in life span of mice with L1210 leukemia cells at a dose of 7.5 mg/kg in exp 2; assay type: functional
# [17] = species: Mus musculus; test: Compound was tested against weight change in mice with L1210 leukemia cells on 7 th Day at Dose 15 mg / kg; assay type: functional; conditions: at 15 mg/kg
# [18] = species: Homo sapiens; test: Compound was tested for its inhibitory concentration against human leukemic lymphoblasts (CEM Cells) and a resistant subline (CEM / MTX); Mean of two assays; assay type: functional; conditions: CCRF-CEM
# [19] = tested on: Mus musculus; test: Median Survival days of mice infected with L1210 leukemia cells at dose 10 mg/kg relative to that of 9 days for control in expt 1; assay type: functional
# [20] = tested on: Mus musculus; test: Increase in life span of mice with L1210 leukemia cells at a dose of 15 mg/kg in exp 2; assay type: functional
# [21] = tested on: Mus musculus; test: Increase in life span of mice with L1210 leukemia cells at a dose of 40 mg/kg in exp 1; assay type: functional
# [22] = tested on: Mus musculus; test: Increase in life span of mice with L1210 leukemia cells at a dose of 80 mg/kg; assay type: functional
# [23] = tested on: Mus musculus; test: Median Survival days of mice infected with L1210 leukemia cells at dose 100 mg/kg relative to that of 9 days for control in expt 2; assay type: functional
# [24] = tested on: Mus musculus; test: Median Survival days of mice infected with L1210 leukemia cells at dose 80 mg/kg relative to that of 9 days for control in expt 2; assay type: functional
# [25] = tested on: Mus musculus; test: Median Survival days of mice infected with L1210 leukemia cells at dose 80 mg/kg relative to that of 9 days for control in expt 1; assay type: functional
# [26] = tested on: Mus musculus; test: Increase in life span of mice with L1210 leukemia cells at a dose of 80 mg/kg in exp 1; assay type: functional
# [27] = tested on: Mus musculus; test: Increase in life span of mice with L1210 leukemia cells at a dose of 100 mg/kg; assay type: functional
# [28] = species: Mus musculus; test: Compound was tested against weight change in mice with L1210 leukemia cells on 7 th Day at Dose 100 mg / kg; assay type: functional; conditions: at 100 mg/kg
# [29] = tested on: Mus musculus; test: Median Survival days of mice infected with L1210 leukemia cells at dose 40 mg/kg relative to that of 9 days for control in expt 1; assay type: functional
# [30] = species: Mus musculus; test: Compound was tested against weight change in mice with L1210 leukemia cells on 10 th Day at Dose 40 mg / kg; conditions: at 40 mg/kg
# [31] = species: Mus musculus; test: Compound was tested against weight change in mice with L1210 leukemia cells on 10 th Day at Dose 80 mg / kg; conditions: at 80 mg/kg
# [32] = species: Homo sapiens; test: Compound was tested for its inhibitory concentration against human leukemic lymphoblasts (CEM Cells); assay type: functional; conditions: CCRF-CEM
# [33] = species: Homo sapiens; test: Compound was tested for its inhibitory concentration against human leukemic lymphoblasts (CEM Cells) and a resistant subline (CEM / MTX).; assay type: functional; conditions: CCRF-CEM
# [34] = tested on: L1210; test: cells; conditions: Mus musculus
# Description: Compound was tested for its inhibitory concentration to inhibit the growth of wild type L1210 cells; Range=0.01 to 0.03
structure (smiles),measurement,setting,value
CN(Cc1cnc2nc(N)nc(N)c2n1)c1ccc(C(=O)NC(CCC(=O)Nc2ccc(O)c(O)c2)C(=O)O)cc1 (centres undefined),IC50,[1]; l1210,30 nM and 8.4 nM
same,IC50,[2],31 nM
same,IC50,[3],38000 nM
Nc1nc(N)c2nc(CNc3ccc(C(=O)NC(CCC(=O)Nc4ccccc4)C(=O)O)cc3)cnc2n1 (centres undefined),IC50,[4],180 nM
same,IC50,"[1]; Mus musculus, L1210",3.5 nM
same,IC50,[1]; l1210,3.6 nM
same,Weight change,[5],4%
same,Survival,[6],15 days
same,Survival,[7],13 days
same,IC50,[8],10000 nM
same,Survival,[9],13 days
same,IC50,[10],60 nM
same,IC50/[E],[11],1.5
same,Weight change,[12],0%
same,ILS at 10 mg/kg,[13],50%
same,Survival,[14],12 days
same,Weight change,[15],17% and 6%
same,ILS at 7.5 mg/kg,[16],30%
same,Weight change,[17],2%
same,IC50,[18],4700 nM
same,Survival,[19],12 days
same,ILS at 15 mg/kg,[20],30%
Nc1nc(N)c2nc(CNc3ccc(C(=O)NC(CCC(=O)NCc4c(Cl)cccc4Cl)C(=O)O)cc3)cnc2n1 (centres undefined),ILS at 40 mg/kg,[21],56%
same,IC50,"[1]; Mus musculus, L1210",3.7 nM
same,IC50,[1]; l1210,2 nM
same,ILS at 80 mg/kg,[22],44%
same,Survival,[23],15 days
same,IC50,[8],61000 nM
same,Survival,[24],13 days
same,IC50,[10],80 nM
same,IC50/[E],[11],2
same,Survival,[25],14 days
same,ILS at 80 mg/kg,[26],44%
same,ILS at 100 mg/kg,[27],67%
same,Weight change,[28],-3%
same,Survival,[29],13 days
same,Weight change,[30],6%
same,Weight change,[31],3% and 9%
CN(Cc1cnc2nc(N)nc(N)c2n1)c1ccc(C(=O)N[C@@H](CCC(=O)O)C(=O)O)cc1 [METHOTREXATE],IC50,[32],32 nM
same,IC50,[33],6600 nM
same,IC50,[34],30 nM
Nc1nc(N)c2nc(CNc3ccc(C(=O)NC(CCC(=O)Nc4ccc(O)c(O)c4)C(=O)O)cc3)cnc2n1 (centres undefined),IC50,[1]; l1210,37 nM and 6 nM
same,IC50,[2],57 nM
same,IC50,[3],23000 nM

# — ChEMBL document CHEMBL1123432, “Methotrexate analogues. 28. Synthesis and biological evaluation of new gamma-monoamides of aminopterin and methotrexate” (J Med Chem, 1986)
